From patent US20230032283A1, “Topical Compositions For Treating Skin Ailments” (priority 2021, published 2023)

System: skin conditions (boil, folliculitis, ingrown hair)
Assay: Empirical studies of active ingredients in topical compositions
Assay type: in vivo, human

Compound | treating contemplated skin conditions (antibiotic ingredients blended into compositions) | relieving pain of papule-like boil or ingrown hair conditions (1% by weight in composition)
bacitracin zinc | effective | –
CCCCOc1ccc(OCCCN2CCOCC2)cc1 [Pramoxine] | – | effective
